“And” between values parts separate entries of the source, which are not always exact repeats. Identical values can stand only once. “Also recorded” adds a separate entry of the source. Like-named read-outs stand apart in the source and are kept apart here.
Experiments:
[1] = target: T1, System L (Mus musculus, UniProt Q9Z127); assay type: cell-based, murine
T1 construct: Murine L1210 Leukemia cells were grown in RPMI 1630 medium; endogenous in cells; host or cells: murine L1210 leukemia cells

[2] = tested on: murine L1210 leukemia cells; assay type: cell-based; details: for IC90: l1210 cells, 45 min, read-out: LD90, murine L1210 leukemia cells (antitumor activity)
[3] = tested on: murine CFU-C; details: for CC90: mouse, bone marrow cfu-c, 0.75 h
[4] = dulbecco's phosphate buffered saline
[5] = read-out: Ki, competitive inhibition of BCH transport
[6] = read-out: KI, inhibition of initial rate of transport of BCH

T1 sequence (Q9Z127 whole entry): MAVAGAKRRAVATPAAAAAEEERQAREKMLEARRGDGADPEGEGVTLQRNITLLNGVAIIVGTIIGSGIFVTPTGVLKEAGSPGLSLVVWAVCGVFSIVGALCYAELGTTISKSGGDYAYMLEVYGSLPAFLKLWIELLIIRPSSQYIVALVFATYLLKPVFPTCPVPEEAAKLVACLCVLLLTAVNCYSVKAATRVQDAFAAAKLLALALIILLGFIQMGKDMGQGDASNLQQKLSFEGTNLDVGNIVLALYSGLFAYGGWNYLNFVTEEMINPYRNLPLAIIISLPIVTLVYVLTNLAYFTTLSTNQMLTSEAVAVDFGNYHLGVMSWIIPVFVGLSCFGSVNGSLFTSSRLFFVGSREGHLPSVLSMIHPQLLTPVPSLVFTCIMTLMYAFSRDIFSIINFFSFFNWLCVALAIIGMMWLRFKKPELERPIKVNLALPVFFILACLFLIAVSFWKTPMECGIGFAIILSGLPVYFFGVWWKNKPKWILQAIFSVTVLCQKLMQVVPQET
T1 sequence (P10852 whole entry partner): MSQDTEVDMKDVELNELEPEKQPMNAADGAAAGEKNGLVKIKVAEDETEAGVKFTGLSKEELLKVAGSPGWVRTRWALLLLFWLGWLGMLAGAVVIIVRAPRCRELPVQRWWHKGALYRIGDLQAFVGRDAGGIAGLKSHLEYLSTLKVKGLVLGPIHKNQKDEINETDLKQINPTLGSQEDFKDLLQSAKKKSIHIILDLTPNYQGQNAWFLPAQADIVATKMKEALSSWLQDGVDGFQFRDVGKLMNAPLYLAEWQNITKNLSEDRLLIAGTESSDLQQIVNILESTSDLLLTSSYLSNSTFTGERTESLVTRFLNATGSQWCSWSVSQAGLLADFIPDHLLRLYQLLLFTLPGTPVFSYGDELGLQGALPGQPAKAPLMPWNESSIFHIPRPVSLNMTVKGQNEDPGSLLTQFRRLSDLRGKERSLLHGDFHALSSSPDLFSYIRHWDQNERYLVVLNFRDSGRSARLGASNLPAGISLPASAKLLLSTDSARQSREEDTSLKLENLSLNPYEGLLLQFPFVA

Compound | Ki [1, 5] | IC90 [2] | CC90 [3] | KI lower / affinity for System L greater than that of L-phenylalanine mustard [1] | inhibition of System L (in words) [1] | more effective inhibitor of System L than BCH [1] | more potent than 2-amino-1,2,3,4-tetrahydro-2-naphthoic acid [1] | Ki [1, 6] | antitumor activity (in words) [2] | improvement in therapeutic index [2] | myelosuppressive activity (in words) [3] | half life (t1/2) [4]
L-phenylalanine mustard [L-PAM, reference compound] | 112 µM | 35 µM | 14 µM |  |  |  |  |  |  |  |  | 
NC1(C(=O)O)CCc2ccc(N(CCCl)CCCl)cc2C1 (racemic) [Compound 6, DL-2-Amino-7-bis(2-chloroethyl)amino-1,2,3,4-tetrahydro-2-naphthoic acid] | 0.22 µM | 26.5 µM | 23.8 µM | 500 fold | extremely potent competitive inhibitor; also recorded: most potent inhibitor of System L | 25-50 fold | approximately 40 fold | ~0.2 µM | enhanced antitumor activity | 2-2.5 fold and 2 fold | reduced myelosuppressive activity | approximately 40 minutes
NC1(C(=O)O)CCc2c(cccc2N(CCCl)CCCl)C1 (racemic) [Compound 7, DL-2-Amino-5-bis-(2-chloroethyl) amino-1,2,3,4-tetrahydro-2-naphthoic acid] |  |  |  |  | weaker inhibitor |  |  | 15.2 µM |  |  |  | 
